Inhibition data for 30 compounds are collected here from patent US9260429B2, “Pyrido[3,4-B]indoles and methods of use” (Medivation Technologies, Inc., priority 2008, dated 2016).

Each structure is given as a SMILES string.

T1 sequence (P14416 whole entry): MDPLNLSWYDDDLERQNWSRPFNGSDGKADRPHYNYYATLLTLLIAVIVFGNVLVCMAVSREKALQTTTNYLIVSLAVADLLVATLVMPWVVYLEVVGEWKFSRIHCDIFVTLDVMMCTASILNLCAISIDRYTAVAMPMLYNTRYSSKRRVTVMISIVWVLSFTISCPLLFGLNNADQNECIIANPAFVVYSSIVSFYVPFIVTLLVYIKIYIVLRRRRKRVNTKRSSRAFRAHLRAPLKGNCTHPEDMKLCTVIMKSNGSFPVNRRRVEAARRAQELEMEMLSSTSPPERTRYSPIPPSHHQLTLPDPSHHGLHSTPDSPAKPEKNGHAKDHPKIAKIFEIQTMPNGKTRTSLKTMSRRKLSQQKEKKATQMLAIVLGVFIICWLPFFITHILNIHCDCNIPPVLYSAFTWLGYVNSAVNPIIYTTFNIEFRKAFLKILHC

The first assay addresses T1, human recombinant dopamine D2L receptor (Homo sapiens, UniProt P14416).
T1 construct: expressed in transfected cells; host or cells: CHO cells
The assay can be described thus: Dopamine D2L radioligand binding ([3H]Spiperone). The note with it: 2 h, 1 μM ligand conc.; read-out: Percent Inhibition of ligand binding Dopamine (1 μM ligand conc.) D2L. The gist of the method:
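CHO-expressed receptor in 50 mM Tris-HCl pH 7.4 with ascorbic acid, 0.001% BSA, 150 mM NaCl; 0.16 nM [3H]spiperone, 120 min at 25 °C; nonspecific binding with haloperidol.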
For `CN1CCc2c(n(CC(O)c3ccccc3F)c3ccc(Cl)cc23)C1` (centres unmarked) [Compound 59, 2-(6-chloro-2-methyl-3,4-dihydro-1H-pyrido[3,4-b]indol-9(2H)-yl)-1-(2-fluorophenyl)ethanol], the inhibition (usually the drop in the measured response relative to a control, in per cent) at 1 µM is 35%.
Same read-out and setting: the same measure for `CN1CCc2c(n(CC(O)c3ccccc3)c3ccc(Cl)cc23)C1` (centres unmarked) [Compound 71]: 21%; for `Cc1ccc2c(c1)c1c(n2CC(=O)N2CCCCC2)CN(C)CC1` [Compound 57, 2-(2,6-dimethyl-3,4-dihydro-1H-pyrido[3,4-b]indol-9(2H)-yl)-1-(piperidin-1-yl)ethanone]: 6%; for `COc1ccc(C(O)Cn2c3c(c4cc(Cl)ccc42)CCN(C)C3)cc1OC` (centres unmarked) [Compound 70]: 0%.
On the same count and under the same terms, in the case of `CN1CCc2c(n(CCC3CCCC3)c3ccc(Cl)cc23)C1` [Compound 35, 6-chloro-9-(2-cyclopentylethyl)-2,3,4,9-tetrahydro-2-methyl-1H-pyrido[3,4-b]indole] it was 3%; in that of `CN1CCc2c(n(CC(C)(O)c3ccc(F)cc3)c3ccc(Cl)cc23)C1` (centres unmarked) [Compound 62, 1-(6-chloro-2-methyl-3,4-dihydro-1H-pyrido[3,4-b]indol-9(2H)-yl)-2-(4-fluorophenyl)propan-2-ol], 81%; in that of `CN1CCc2c(n(CC(=O)NC3CCCCC3)c3ccc(Cl)cc23)C1` [Compound 17, 2-(6-chloro-1,2,3,4-tetrahydro-2-methylpyvrido[3,4-b]indol-9-yl)-N-cyclohexylacetamide], -3%.
For `Cc1ccc2c(c1)c1c(n2CCC(=O)N2CCCCC2)CN(C)CC1` [Compound 43, 3-(1,2,3,4-tetrahydro-2,6-dimethylpyrido[3,4-b]indol-9-yl)-1-(piperidin-1-yl)propan-1-one], the inhibition at 1 µM was -8%.
As for `COC(=O)Cn1c2c(c3cc(C)ccc31)CCN(C)C2` [Compound 21, methyl 2-(1,2,3,4-tetrahydro-2,6-dimethylpyrido[3,4-b]indol-9-yl)acetate], the inhibition at 1 µM is -1%.
For `CN1CCc2c(n(CC(=O)N(C)C)c3ccc(Cl)cc23)C1` [Compound 16, 2-(6-chloro-1,2,3,4-tetrahydro-2-methylpyrido[3,4-b]indol-9-yl)-N,N-dimethylacetamide], the inhibition at 1 µM is -7%.
The same measure, in the same setting: in the case of `CN1CCc2c(n(CC(=O)Nc3ccc(F)cc3)c3ccc(Cl)cc23)C1` [Compound 15, 2-(6-chloro-1,2,3,4-tetrahydro-2-methylpyrido[3,4-b]indol-9-yl)-N-(4-fluorophenyl)acetamide] it was -5%.
The same measure, in the same setting: the same measure for `CN1CCc2c(n(CCCC(=O)N3CCCCC3)c3ccc(Cl)cc23)C1` [Compound 44, 4-(6-chloro-1,2,3,4-tetrahydro-2-methylpyrido[3,4-b]indol-9-yl)-1-(piperidin-1-yl)butan-1-one]: 8%; for `CN1CCc2c(n(CC(=O)O)c3ccc(Cl)cc23)C1` [Compound 52, 2-(6-chloro-1,2,3,4-tetrahydro-2-methylpyrido[3,4-b]indol-9-yl)acetic acid]: 1%.
Still for that read-out and setting: in the case of `COC(=O)Cn1c2c(c3cc(Cl)ccc31)CCN(C)C2` [Compound 54, methyl 2-(6-chloro-2-methyl-3,4-dihydro-1H-pyrido[3,4-b]indol-9(2H)-yl)acetate] it was -16%; in that of `COc1ccc(C(O)Cn2c3c(c4cc(C)ccc42)CCN(C)C3)cc1OC` (centres unmarked) [Compound 66], 9%.
Consider `CN1CCc2c(n(CC(=O)N3CCNCC3)c3ccc(Cl)cc23)C1` [Compound 55, 2-(6-chloro-2-methyl-3,4-dihydro-1H-pyrido[3,4-b]indol-9(2H)-yl)-1-(piperazin-1-yl)ethanone], for which the inhibition at 1 µM was -6%.
Same read-out and setting: in the case of `Cc1ccc(C(O)Cn2c3c(c4cc(C)ccc42)CCN(C)C3)cc1` (centres unmarked) [Compound 72] it was 24%.
Still for that read-out and setting: in the case of `Cc1ccc2c(c1)c1c(n2CCc2ccc(C(F)(F)F)nc2)CN(C)CC1` [Compound 5, 9-(2-(6-(trifluoromethyl)pyridin-3-yl)ethyl)-2,3,4,9-tetrahydro-2,6-dimethyl-1H-pyrido[3,4-b]indole] it was 0%.
With `Cc1ccc2c(c1)c1c(n2/C=C/c2ccccc2)CN(C)CC1` [Compound 92], the inhibition at 1 µM was 47%.
Still for that read-out and setting: in the case of `Cc1ccc2c(c1)c1c(n2CC(O)c2ccccc2)CN(C)CC1` (centres unmarked) [Compound 67] it was 21%.
Same read-out and setting: the same measure for `Cc1ccc(CCCn2c3c(c4cc(Cl)ccc42)CCN(C)C3)cn1` [Compound 56, 6-chloro-2-methyl-9-(3-(6-methylpyridin-3-yl)propyl)-2,3,4,9-tetrahydro-1H-pyrido[3,4-b]indole]: 9%.
The same measure, in the same setting: in the case of `CN1CCc2c(n(CC(=O)N(C)C3CCCCC3)c3ccc(Cl)cc23)C1` [Compound 18, 2-(6-chloro-1,2,3,4-tetrahydro-2-methylpyrido[3,4-b]indol-9-yl)-N-cyclohexyl-N-methylacetamide] it was 0%; in that of `Cc1ccc2c(c1)c1c(n2CC(=O)O)CN(C)CC1` [Compound 53, 2-(1,2,3,4-tetrahydro-2,6-dimethylpyrido[3,4-b]indol-9-yl)acetic acid], 6%; in that of `CN1CCc2c(n(CC(=O)N3CCCC3)c3ccc(Cl)cc23)C1` [Compound 40, 2-(6-chloro-1,2,3,4-tetrahydro-2-methylpyrido[3,4-b]indol-9-yl)-1-(pyrrolidin-1-yl)ethanone], -11%.
Take `CC(C)CCN(C)C(=O)Cn1c2c(c3cc(Cl)ccc31)CCN(C)C2` [Compound 14, 2-(6-chloro-1,2,3,4-tetrahydro-2-methylpyrido[3,4-b]indol-9-yl)-N-isopentyl-N-methylacetamide]: the inhibition at 1 µM is 6%.
Consider `CN1CCc2c(n(CCCc3ccccc3)c3ccc(Cl)cc23)C1` [Compound 29, 6-chloro-2,3,4,9-tetrahydro-2-methyl-9-(3-phenylpropyl)-1H-pyrido[3,4-b]indole], for which the inhibition at 1 µM came to 24%.
On the same count and under the same terms, the same measure for `Cc1ccc2c(c1)c1c(n2CC(C)(O)c2ccc(F)cc2)CN(C)CC1` (centres unmarked) [Compound 61, 1-(2,6-dimethyl-3,4-dihydro-1H-pyrido[3,4-b]indol-9(2H)-yl)-2-(4-fluorophenyl)propan-2-ol]: 41%.
Same read-out and setting: in the case of `CN1CCc2c(n(CCN3CCCCC3)c3ccc(Cl)cc23)C1` [Compound 34, 6-chloro-2,3,4,9-tetrahydro-2-methyl-9-(2-(piperidin-1-yl)ethyl)-1H-pyrido[3,4-b]indole] it was 9%.
The same measure, in the same setting: in the case of `CN1CCc2c(n(CC(=O)N3CCCCC3)c3ccc(Cl)cc23)C1` [Compound 58, 2-(6-chloro-2-methyl-3,4-dihydro-1H-pyrido[3,4-b]indol-9(2H)-yl)-1-(piperidin-1-yl)ethanone] it was -5%; in that of `Cc1ccc2c(c1)c1c(n2CC(O)c2ccccc2F)CN(C)CC1` (centres unmarked) [Compound 60, 2-(2,6-dimethyl-3,4-dihydro-1H-pyrido[3,4-b]indol-9(2H)-yl)-1-(2-fluorophenyl)ethanol], 18%.

Staying with this assay, now noted: compound concentration 1 μM; read-out: Percentage inhibition of ligand binding to D2L receptor.
Take `Cc1ccc2c(c1)c1c(n2/C=C/c2ccccc2)CN(C)CC1` [Compound 92]: the inhibition at 1 µM was determined as 47%.

The same assay, now with this note: compound concentration 3 μM; read-out: Percentage inhibition of ligand binding to D2L receptor.
For the compound `Cc1ccc2c(c1)c1c(n2/C=C/c2ccccc2)CN(C)CC1` [Compound 92], the inhibition at 3 µM was determined as 72%.
